Patent publication US6841556B2, “Pyrazoloisoquinoline derivatives for inhibiting NFκB-inducing kinase” (Aventis Pharma Deutschland GmbH, priority 2002, dated 2005)

Assays:
[1] = tested on: human peripheral blood lymphocytes; assay: Cytotoxicity by LDH release, IL1β-stimulated human peripheral blood lymphocytes; type: cell-based
Method: (§1) The pyrazoloisoquinoline derivatives according to the invention were tested for inhibitory activity against NIK in various in vitro assay systems. In this connection, human peripheral blood lymphocytes were preincubated for 1 h with different concentrations of the compounds and then stimulated for 24 h with LPS or IL1β. After that, a commercially obtainable ELISA test kit was used to measure the release of TNFα in the culture supernatant, and the IC50 for the given compound was determined. The cytotoxicity was measured by way of LDH release using a commercially obtainable test kit and the LD50 for the given compound was determined.

[2] = tested on: human peripheral blood lymphocytes; assay: Cytotoxicity by LDH release, LPS-stimulated human peripheral blood lymphocytes; type: cell-based
Method: as §1

SMILES: c1ccc(-c2nc3c(-c4ccccc4)n[nH]c3c3ccccc23)cc1 [Example 1, 3,5-Diphenyl-1H-pyrazolo[4,3-c]isoquinoline]
- Cytotoxicity LD50 [1]: >100 µM
- Cytotoxicity LD50 [2]: >100 µM

SMILES: COc1cccc(-c2nc3c(C)n[nH]c3c3ccccc23)c1 [Example 2, 5-(3-Methoxyphenyl)-3-methyl-1H-pyrazolo[4,3-c]isoquinoline]
- Cytotoxicity LD50 [1]: >100 µM
- Cytotoxicity LD50 [2]: >100 µM

SMILES: Cc1n[nH]c2c1nc(-c1cccc(O)c1)c1ccccc12 [Example 3, 3-(3-Methyl-1H-pyrazolo[4,3-c]isoquinolin-5-yl)phenol]
- Cytotoxicity LD50 [1]: >100 µM
- Cytotoxicity LD50 [2]: >100 µM
